Reference: patent publication US20220257491A1, “Prebiotic Oral Care Compositions and Methods” (Colgate-Palmolive Company, priority 2021, published 2022)
Marks after values point to notes of the source that are not given here.

Experiments:
Type in all cases: cell-based
A. actinomycetemcomitans = assay: Multi-species biofilm composition: absolute abundance of A. actinomycetemcomitans; settings: mean±SD n=3
Protocol: (§1) Biofilms are grown vertically on Calcium Deficient Hydroxyapatite (CAD-HA) disks (Hitemco Medical, Old Bethpage, USA) using the Amsterdam Active Adhesion model. Biofilms are allowed to establish during 24 h (37° C., 170 rpm) under micro-aerophilic conditions (6% O2, 7% CO2, 7% H2, 80% N2). After this 24 h, disks are rinsed 3 times a day for 3 minutes (RT, 250 rpm), for 3 consecutive days, by transferring the lid containing the disks to a new 24-well plate containing 2 mL/well of the appropriate substrate solution. As a negative control, PBS (pH 5.7) without substrate supplementation is used. After each rinsing step, disks are shortly dip-rinsed in a new 24-well plate containing fresh modified BHI medium (2 mL/well) to remove remaining substrate traces. Subsequently, the lid is transferred to another 24-well plate containing fresh modified BHI medium (2 mL/well), followed by incubation (micro-aerophilic, 37° C., 170 rpm) until the next rinsing step.
(§2) NADM, N-acetyl-D-glucosamine (“NADG”) and D-(+)-mannose are selected to determine their effects on multi-species biofilm composition. […] decrease in absolute numbers in at least four of the pathogenic bacterial species tested in the assay, compared to the control, the results of which are described in Table 1 below. Absolute abundances of bacterial species are shown as mean±SD (n=3) logarithmic values of the genome equivalents per millilitre (log(Geq/mL)).

P. gingivalis = assay: Multi-species biofilm composition: absolute abundance of P. gingivalis; settings: for Absolute abundance Pg (P. gingivalis): mean±SD n=3
Protocol: as §1, §2

S. mutans = assay: Multi-species biofilm composition: absolute abundance of S. mutans; settings: mean±SD n=3
Protocol: as §1
(§3) NADM, N-acetyl-D-glucosamine (“NADG”) and D-(+)-mannose are selected to determine their effects on multi-species biofilm composition. Repeated rinsing of the biofilms with the substrates at a concentration of 1M results in a significant decrease in absolute numbers in at least four of the pathogenic bacterial species tested in the assay, compared to the control, the results of which are described in Table 1 below. Absolute abundances of bacterial species are shown as mean±SD (n=3) logarithmic values of the genome equivalents per millilitre (log(Geq/mL)).

S. sobrinus = assay: Multi-species biofilm composition: absolute abundance of S. sobrinus; settings: mean±SD n=3
Protocol: as §1, §2

A. naeslundii = assay: Multi-species biofilm composition: absolute abundance of A. naeslundii; settings: mean±SD n=3
Protocol: as §1, §3

S. gordonii = assay: Multi-species biofilm composition: absolute abundance of S. gordonii; settings: mean±SD n=3
Protocol: as §1, §3

S. oralis = assay: Multi-species biofilm composition: absolute abundance of S. oralis; settings: mean±SD n=3
Protocol: as §1, §2

V. parvula = assay: Multi-species biofilm composition: absolute abundance of V. parvula; settings: mean±SD n=3
Protocol: as §1, §3

[1] = tested on: A. actinomycetemcomitans virulence genes; assay: Multi-species biofilm virulence gene expression, SYBR RT-qPCR: A. actinomycetemcomitans; settings: for Fold Change in virulence gene expression: aae / Fold Change in virulence gene expression: apaH / Fold Change in virulence gene expression: cdtB / Fold Change in virulence gene expression: emaA / Fold Change in virulence gene expression: flp / Fold Change in virulence gene expression: ltxA / Fold Change in virulence gene expression: omp29 / Fold Change in virulence gene expression: omp100 / Fold Change in virulence gene expression: orf859 / Fold Change in virulence gene expression: pgA / Fold Change in virulence gene expression: vapA / Fold Change in virulence gene expression: vppA: relative to control (=1), 2^-ΔΔCt, geometric mean n=3
Protocol: as §1
The expression of 33 virulence genes from 4 periodontal pathogens is analysed to evaluate the relative virulence of the substrate-treated biofilms. For all three substrates, virulence gene expression is determined relatively to the control, and these values are also compared between substrates when this is relevant (Tables 5a-5d).

[2] = tested on: human oral keratinocytes (HOK-18A); assay: Inflammatory mediator gene expression in keratinocytes exposed to substrate-treated biofilms; settings: for Fold change in inflammatory mediator gene expression: IL-1β / Fold change in inflammatory mediator gene expression: IL-6 / Fold change in inflammatory mediator gene expression: IL-8 / Fold change in inflammatory mediator gene expression: MMP-8 / Fold change in inflammatory mediator gene expression: TNF-α: relative to control (=1), geometric mean (95% C.I.) n=3
Protocol: (§4) Cultures of immortalized human oral keratinocytes (HOK-18A) are grown. The relative inflammatory potential of the substrate-treated multi-species biofilms is evaluated by analyzing the expression of five inflammatory mediator genes in human oral keratinocytes (HOKs) exposed to the substrate-treated biofilms. […] The IL-8 levels in the cellular supernatant are determined as well. RNA is converted to cDNA and relative expression of inflammatory mediator genes is determined as described above with respect to the cellular housekeeping gene (3-actin.
In HOKs exposed to substrate-treated (substrate concentrations of 1 M) multi-species biofilms, mostly decreases in inflammatory mediator gene expression are observed and measured via SYBR RT-qPCR, the results of which are detailed in Table 6.
(§5) All substrates are dissolved in PBS at a concentration of 1 M (upper part) or 1% (w/v) (lower part). Values between 0 and 1 represent relative downregulation, values >1 represent relative upregulation. […] For such values, statistically significant differences between two experimental conditions are marked with ‘#1’ (vs. NADM), ‘#2’ (vs. NADG), ‘#3’ (vs. D-(+)-mannose) (P<0.05).

[3] = tested on: human oral keratinocytes (HOK-18A); assay: IL-8 levels in supernatants of keratinocyte cultures exposed to substrate-treated biofilms; settings: mean±SD n=3
Protocol: as §4
as §5, with “Table 7: IL-8 levels detected in the supernatants of human oral keratinocytes (HOK-18A) cultures exposed to substrate-treated multi-species biofilms are shown as mean±SD (n=3) values (pg/mL). All” for “All”

[4] = biofilm rinsed with substrate 1%
[5] = biofilm rinsed with substrate 1M

In the case of O=C[C@@H](O)[C@@H](O)[C@H](O)[C@H](O)CO [D-mannose, D-(+)-mannose], the “Absolute abundance Aa (A. actinomycetemcomitans)” value (A. actinomycetemcomitans; substrate 1%(w/v) in PBS) is reported as 9.02 ± 0.11 log(Geq/mL), the “Absolute abundance Aa (A. actinomycetemcomitans)” value (A. actinomycetemcomitans; substrate 1 M in PBS) is reported as 6.07 ± 0.47 log(Geq/mL) and the “Absolute abundance Pg (P. gingivalis)” value (P. gingivalis; substrate 1%(w/v) in PBS) is reported as 7.08 ± 0.17 log(Geq/mL). The “Difference in P. gingivalis amounts compared to NADG” value (P. gingivalis; substrate 1 M) was −1.25 log(Geq/mL), the “Absolute abundance Pg (P. gingivalis)” value (P. gingivalis; substrate 1 M in PBS) was 2.75 ± 0.08*^, #2 log(Geq/mL) and the “Absolute abundance S. mutans” value (S. mutans; substrate 1%(w/v) in PBS) was 7.34 ± 0.12 log(Geq/mL). The “Absolute abundance S. mutans” value (S. mutans; substrate 1 M in PBS) was 8.60 ± 0.09 log(Geq/mL), the “Absolute abundance S. sobrinus” value (S. sobrinus; substrate 1%(w/v) in PBS) was 5.28 ± 0.44 log(Geq/mL) and the “Absolute abundance S. sobrinus” value (S. sobrinus; substrate 1 M in PBS) was 5.44 ± 0.31 log(Geq/mL). For the same compound, the “Absolute abundance An (A. naeslundii)” value (A. naeslundii; substrate 1%(w/v) in PBS) was 7.59 ± 0.05 log(Geq/mL), the “Absolute abundance An (A. naeslundii)” value (A. naeslundii; substrate 1 M in PBS) was 5.54 ± 0.24 log(Geq/mL) and the “Absolute abundance S. gord. (S. gordonii)” value (S. gordonii; substrate 1%(w/v) in PBS) was 8.29 ± 0.11 log(Geq/mL). For the same compound, the “Absolute abundance S. gord. (S. gordonii)” value (S. gordonii; substrate 1 M in PBS) was 9.19 ± 0.39 log(Geq/mL), the “Absolute abundance S. oralis” value (S. oralis; substrate 1%(w/v) in PBS) was 6.27 ± 0.21 log(Geq/mL) and the “Absolute abundance S. oralis” value (S. oralis; substrate 1 M in PBS) was 6.83 ± 0.09 log(Geq/mL). The “Absolute abundance Vp (V. parvula)” value (V. parvula; substrate 1%(w/v) in PBS) was 9.93 ± 0.20 log(Geq/mL), the “Absolute abundance Vp (V. parvula)” value (V. parvula; substrate 1 M in PBS) was 10.18 ± 0.09 log(Geq/mL) and the “Fold Change in virulence gene expression: aae” value ([1]; substrate 1% (w/v)) was 1.06 fold. For the same compound, the “Fold Change in virulence gene expression: apaH” value ([1]; substrate 1% (w/v)) was 0.72 fold, the “Fold Change in virulence gene expression: cdtB” value ([1]; substrate 1% (w/v)) was 0.36 fold and the “Fold Change in virulence gene expression: emaA” value ([1]; substrate 1% (w/v)) was 0.41 fold. The “Fold Change in virulence gene expression: flp” value ([1]; substrate 1% (w/v)) was 1.26 fold, the “Fold Change in virulence gene expression: ltxA” value ([1]; substrate 1% (w/v)) was 0.17 fold and the “Fold Change in virulence gene expression: omp29” value ([1]; substrate 1% (w/v)) was 0.65 fold. For the same compound, the “Fold Change in virulence gene expression: omp100” value ([1]; substrate 1% (w/v)) was 0.34 fold, the “Fold Change in virulence gene expression: orf859” value ([1]; substrate 1% (w/v)) was 1.46 fold and the “Fold Change in virulence gene expression: pgA” value ([1]; substrate 1% (w/v)) was 0.55 fold. For the same compound, the “Fold Change in virulence gene expression: vapA” value ([1]; substrate 1% (w/v)) was 0.39 fold, the “Fold Change in virulence gene expression: vppA” value ([1]; substrate 1% (w/v)) was 0.53 fold and the “A. actinomycetemcomitans gene expression decrease: cdtB, emaA, ltxA, omp100 and vapA” value ([1]; substrate 1%(w/v)) was 2.4- to 5.9 fold. For the same compound, the “Fold Change in virulence gene expression: aae” value ([1]; substrate 1M) was 0.16 fold, the “Fold Change in virulence gene expression: apaH” value ([1]; substrate 1M) was 0.12 fold and the “Fold Change in virulence gene expression: cdtB” value ([1]; substrate 1M) was 0.13 fold. For the same compound, the “Fold Change in virulence gene expression: emaA” value ([1]; substrate 1M) was 0.12 fold, the “Fold Change in virulence gene expression: flp” value ([1]; substrate 1M) was 1.57 fold and the “Fold Change in virulence gene expression: ltxA” value ([1]; substrate 1M) was 0.02 fold. For the same compound, the “Fold Change in virulence gene expression: omp29” value ([1]; substrate 1M) was 0.27 fold, the “Fold Change in virulence gene expression: omp100” value ([1]; substrate 1M) was 0.26 fold and the “Fold Change in virulence gene expression: orf859” value ([1]; substrate 1M) was 0.03 fold. The “Fold Change in virulence gene expression: pgA” value ([1]; substrate 1M) was 5.70 fold, the “Fold Change in virulence gene expression: vapA” value ([1]; substrate 1M) was 0.62 fold and the “Fold Change in virulence gene expression: vppA” value ([1]; substrate 1M) was 0.58 fold. For the same compound, the “Fold change in inflammatory mediator gene expression: IL-1β” value [2, 4] was 0.79 (0.43-1.48) fold, the “Fold change in inflammatory mediator gene expression: IL-6” value [2, 4] was 0.79 (0.60-1.06) fold and the “Fold change in inflammatory mediator gene expression: IL-8” value [2, 4] was 1.22 (0.79-1.86) fold. For the same compound, the “Fold change in inflammatory mediator gene expression: MMP-8” value [2, 4] was 0.40 (0.27-0.58)* fold, the “Fold change in inflammatory mediator gene expression: TNF-α” value [2, 4] was 0.770.48-1.23) fold and the “Fold change in inflammatory mediator gene expression: IL-1β” value [2, 5] was 0.81 (0.59-1.12) fold. For the same compound, the “Fold change in inflammatory mediator gene expression: IL-6” value [2, 5] was 0.63 (0.41-0.97) fold, the “Fold change in inflammatory mediator gene expression: IL-8” value [2, 5] was 0.12 (0.06-0.27)* fold and the “Fold change in inflammatory mediator gene expression: MMP-8” value [2, 5] was 1.25 (1.10-1.42) fold. The “Fold change in inflammatory mediator gene expression: TNF-α” value [2, 5] was 0.77 (0.37-1.60) fold, the “Decreased MMP-8 gene expression” value ([2]; substrate 1%(w/v)) was 2.5 fold and the “IL-8 levels in supernatants of HOK-18A cultures” value ([3]; biofilm rinsed with substrate 1%(w/v)) was 51.09 ± 13.89 pg/mL. For the same compound, the “IL-8 levels in supernatants of HOK-18A cultures” value [3, 5] was 0.06 ± 0.04 pg/mL.
